Assay results published in PubChem BioAssay AID248 (DTP/NCI, 2004).
Values joined by “and” are separate entries in the source; they are usually repeats but may differ in a detail not shown here. Equal entries are not always repeated. Toxic doses and inconclusive results are not listed. Cut-off read from the data, not from the text of the source: active = T/C of 150% or more; inactive = T/C below 125%.

Test system: L1210 leukemia ip in BDF1 mice, survival T/C
Test: NCI In Vivo Anticancer Drug Screen. Data for tumor model L1210 Leukemia (intraperitoneal) in B6D2F1 (BDF1) mice
Conditions: endpoint: mean survival time, higher = longer survival
How it was run: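 Mice bearing the transplanted tumor received compound or vehicle. Survival of the treated group was divided by that of the vehicle-treated control group to give the ratio.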

[1] = dose: 100.0 mg/kg/injection, schedule: Q01DX001 (ip), vehicle: saline
[2] = dose: 200.0 mg/kg/injection, schedule: Q01DX001 (ip), vehicle: saline
[3] = dose: 400.0 mg/kg/injection, schedule: Q01DX001 (ip), vehicle: saline
[4] = dose: 100.0 mg/kg/injection, schedule: Q01DX009 (ip), vehicle: Klucel (hydroxypropylcellulose) (HPC)
[5] = dose: 100.0 mg/kg/injection, schedule: Q04DX003 (ip), vehicle: Klucel (hydroxypropylcellulose) (HPC)
[6] = dose: 200.0 mg/kg/injection, schedule: Q04DX003 (ip), vehicle: Klucel (hydroxypropylcellulose) (HPC)
[7] = dose: 400.0 mg/kg/injection, schedule: Q04DX003 (ip), vehicle: Klucel (hydroxypropylcellulose) (HPC)
[8] = dose: 100.0 mg/kg/injection, schedule: Q01DX001 (ip), vehicle: Klucel (hydroxypropylcellulose) (HPC)
[9] = dose: 200.0 mg/kg/injection, schedule: Q01DX001 (ip), vehicle: Klucel (hydroxypropylcellulose) (HPC)
[10] = dose: 400.0 mg/kg/injection, schedule: Q01DX001 (ip), vehicle: Klucel (hydroxypropylcellulose) (HPC)
[11] = dose: 100.0 mg/kg/injection, schedule: Q01DX009 (ip), vehicle: saline
[12] = dose: 200.0 mg/kg/injection, schedule: Q01DX009 (ip), vehicle: Klucel (hydroxypropylcellulose) (HPC)
[13] = dose: 400.0 mg/kg/injection, schedule: Q01DX009 (ip), vehicle: Klucel (hydroxypropylcellulose) (HPC)
[14] = dose: 100.0 mg/kg/injection, schedule: Q04DX003 (ip), vehicle: saline with Tween-80
[15] = dose: 200.0 mg/kg/injection, schedule: Q04DX003 (ip), vehicle: saline with Tween-80
[16] = dose: 100.0 mg/kg/injection, schedule: Q01DX001 (ip), vehicle: carboxymethylcellulose (CMC)
[17] = dose: 200.0 mg/kg/injection, schedule: Q01DX001 (ip), vehicle: carboxymethylcellulose (CMC)
[18] = dose: 400.0 mg/kg/injection, schedule: Q01DX001 (ip), vehicle: carboxymethylcellulose (CMC)

Measured: T/C

COc1cc(C(=O)CCC(=O)O)c(OC)c(CBr)c1CBr
inactive: dose: 5.0 mg/kg/injection, schedule: Q01DX001 (ip), vehicle: other 101 % of control | dose: 10.0 mg/kg/injection, schedule: Q01DX001 (ip), vehicle: other 110 % of control | dose: 20.0 mg/kg/injection, schedule: Q01DX001 (ip), vehicle: other 101 % of control

COc1ccc2c(c1)c1c(C)c3cnccc3c(C)c1n2CCCN
inactive: dose: 0.5 mg/kg/injection, schedule: Q01DX009 (ip), vehicle: saline 96 % of control | dose: 1.0 mg/kg/injection, schedule: Q01DX009 (ip), vehicle: saline 102 % of control | dose: 3.0 mg/kg/injection, schedule: Q01DX009 (ip), vehicle: saline 104 % of control | dose: 3.0 mg/kg/injection, schedule: Q04DX003 (ip), vehicle: saline 104 % of control | dose: 6.0 mg/kg/injection, schedule: Q01DX009 (ip), vehicle: saline 112 % of control | dose: 6.0 mg/kg/injection, schedule: Q04DX003 (ip), vehicle: saline 104 % of control | dose: 12.0 mg/kg/injection, schedule: Q01DX009 (ip), vehicle: saline 106 % of control | dose: 12.0 mg/kg/injection, schedule: Q04DX003 (ip), vehicle: saline 107 % of control

CC1CCc2nc3ccccc3nc21 (centres undefined)
inactive: [1] 91 % of control | [2] 97 % of control | [3] 91 % of control

O=C1NC(=O)C2(CCCc3ccc(N(CCCl)CCCl)cc32)N1 (centres undefined)
inactive: dose: 30.0 mg/kg/injection, schedule: Q01DX015 (ip), vehicle: carboxymethylcellulose (CMC) 102 % of control | dose: 60.0 mg/kg/injection, schedule: Q01DX015 (ip), vehicle: carboxymethylcellulose (CMC) 120 % of control | dose: 120.0 mg/kg/injection, schedule: Q01DX015 (ip), vehicle: carboxymethylcellulose (CMC) 123 % of control | dose: 240.0 mg/kg/injection, schedule: Q01DX015 (ip), vehicle: carboxymethylcellulose (CMC) 107 % of control

O=C1CCCC(=O)C1C(C[N+](=O)[O-])c1ccccc1 (centres undefined)
inactive: dose: 12.5 mg/kg/injection, schedule: Q01DX009 (ip), vehicle: Klucel (hydroxypropylcellulose) (HPC) 97 % of control | dose: 25.0 mg/kg/injection, schedule: Q01DX009 (ip), vehicle: Klucel (hydroxypropylcellulose) (HPC) 93 % of control | dose: 50.0 mg/kg/injection, schedule: Q01DX009 (ip), vehicle: Klucel (hydroxypropylcellulose) (HPC) 90 % of control | [4] 88 % of control | [5] 98 % of control

CCCCCCCCCCCCC/C=C\CC(CC(=O)O)C(=O)Nc1cccc2cnccc12 (centres undefined)
inactive: [5] 97 % of control | [6] 103 % of control | [7] 97 % of control

O=C(O)c1ccc(N=C=S)cc1O
inactive: [8] 97 % of control | [9] 107 % of control | [10] 97 % of control

O=C(O)CCCc1ccc(Cl)cc1
inactive: dose: 50.0 mg/kg/injection, schedule: Q01DX009 (ip), vehicle: saline 113 % of control | [11] 105 % of control | dose: 200.0 mg/kg/injection, schedule: Q01DX009 (ip), vehicle: saline 96 % of control

Nc1cc(=O)[nH]c(=S)n1-c1ccc(I)cc1
inactive: dose: 50.0 mg/kg/injection, schedule: Q01DX001 (ip), vehicle: saline 100 % of control | [1] 106 % of control | [2] 102 % of control | [3] 100 % of control

O=C1C=C(Nc2cccc(Cl)c2)C(=O)N1c1cccc(Cl)c1
inactive: dose: 75.0 mg/kg/injection, schedule: Q04DX003 (ip), vehicle: other 106 % of control | dose: 150.0 mg/kg/injection, schedule: Q04DX003 (ip), vehicle: other 91 % of control | dose: 300.0 mg/kg/injection, schedule: Q04DX003 (ip), vehicle: other 90 % of control

COc1cc(/C=N/Nc2cc(=O)[nH]c(N)n2)cc(OC)c1OC
inactive: [5] 98 % of control | [6] 100 % of control | [7] 100 % of control

CCOC(=O)/C(C#N)=C/c1ccc(O)c(OC)c1
inactive: [4] 101 % of control | [5] 102 % of control | [12] 94 % of control | [6] 96 % of control | [13] 89 % of control | [7] 95 % of control

Cc1ccc(C2CCCN2C)cc1 (centres undefined)
inactive: dose: 25.0 mg/kg/injection, schedule: Q04DX003 (ip), vehicle: acetone 96 % of control | dose: 50.0 mg/kg/injection, schedule: Q04DX003 (ip), vehicle: acetone 94 % of control | dose: 100.0 mg/kg/injection, schedule: Q01DX001 (ip), vehicle: acetone 88 % of control | dose: 100.0 mg/kg/injection, schedule: Q04DX003 (ip), vehicle: acetone 99 % of control

OC[C@@H]1CC[C@H](n2cnc3c(Cl)ncnc32)C1
inactive: [1] 103 % of control | [2] 101 % of control | [3] 101 % of control

NNS(=O)(=O)CCCCCCCCCCC(=O)O
inactive: dose: 50.0 mg/kg/injection, schedule: Q01DX009 (ip), vehicle: saline with Tween-80 99 % of control | dose: 100.0 mg/kg/injection, schedule: Q01DX009 (ip), vehicle: saline with Tween-80 96 % of control | [14] 92 % of control | dose: 200.0 mg/kg/injection, schedule: Q01DX009 (ip), vehicle: saline with Tween-80 91 % of control | [15] 90 % of control

O=CC(S)CO (centres undefined)
inactive: [2] 103 % of control | [3] 97 % of control | dose: 800.0 mg/kg/injection, schedule: Q01DX001 (ip), vehicle: saline 108 % of control

CC(=O)Oc1ccc(-c2ccc(Cl)cc2)cc1
inactive: [16] 103 % of control | [17] 109 % of control | [18] 97 % of control

O=[N+]([O-])c1ccc(-c2cc3ccccc3nc2Cl)cc1
inactive: [1] 92 % of control | [2] 90 % of control | [3] 101 % of control

Oc1ccc(Br)cc1C=NC1CCCCC1
inactive: dose: 100.0 mg/kg/injection, schedule: Q04DX002 (ip), vehicle: other 90 % of control | dose: 200.0 mg/kg/injection, schedule: Q04DX002 (ip), vehicle: other 96 % of control | dose: 400.0 mg/kg/injection, schedule: Q04DX002 (ip), vehicle: other 90 % of control

COC(=O)C1C(=O)CCC2CN3CCc4c([nH]c5ccccc45)C3CC21 (centres undefined)
inactive: dose: 12.5 mg/kg/injection, schedule: Q04DX002 (ip), vehicle: saline with Tween-80 94 % of control | dose: 25.0 mg/kg/injection, schedule: Q04DX002 (ip), vehicle: saline with Tween-80 100 % of control | dose: 50.0 mg/kg/injection, schedule: Q04DX002 (ip), vehicle: saline with Tween-80 90 % of control

O=S(O)c1cc(Br)ccc1Br
inactive: [4] 97 % of control | [5] 93 % of control | [12] 113 % of control | [6] 104 % of control | [7] 94 % of control

C1CCCC(=[N+]2CCCC2)CCC1
inactive: [11] 100 % of control

CC(C)(SCCc1ccccn1)C(N)C(=O)O (centres undefined)
inactive: [8] 102 % of control | [9] 107 % of control | [10] 96 % of control

N#CC(C(N)=O)n1cnc(C(N)=O)c1N (centres undefined)
inactive: [16] 97 % of control | [17] 94 % of control | [18] 96 % of control

[N-]=[N+]=CC(=O)OCC(N)C(=O)O (centres undefined)
inactive: dose: 100.0 mg/kg/injection, schedule: Q01DX009 (ip), vehicle: water 103 % of control | dose: 200.0 mg/kg/injection, schedule: Q01DX009 (ip), vehicle: water 105 % of control | dose: 400.0 mg/kg/injection, schedule: Q01DX009 (ip), vehicle: water 89 % of control

OCc1ccccc1Cn1ccnc1
inactive: [8] 111 % of control | [4] 97 % of control and 105 % of control | dose: 100.0 mg/kg/injection, schedule: Q04DX002 (ip), vehicle: Klucel (hydroxypropylcellulose) (HPC) 102 % of control and 103 % of control | [5] 105 % of control | [9] 103 % of control | [12] 94 % of control and 87 % of control | dose: 200.0 mg/kg/injection, schedule: Q04DX002 (ip), vehicle: Klucel (hydroxypropylcellulose) (HPC) 97 % of control and 88 % of control | [6] 111 % of control | [10] 99 % of control | [13] 94 % of control and 96 % of control | dose: 400.0 mg/kg/injection, schedule: Q04DX002 (ip), vehicle: Klucel (hydroxypropylcellulose) (HPC) 97 % of control and 100 % of control | [7] 110 % of control

COC(=O)c1ccccc1C(=O)O
inactive: [14] 101 % of control | [15] 93 % of control

O=c1[nH]c2ccccc2c2ccc(Br)cc12
inactive: [16] 104 % of control | [17] 97 % of control | [18] 90 % of control

Cc1cc(O)cc(=O)[nH]1
inactive: [1] 97 % of control | [2] 100 % of control
